Results reported in US20200253860A1, “TOPICAL COMPOSITION FOR ANTIAGING BENEFITS” (Conopco, Inc., d/b/a UNILEVER, priority 2017, published 2020).

Tested on: Nrf2
Assay: Nrf2 activation in AREc32 cells (luciferase assay)
Format: cell-based
Settings: for Nrf2 activation fold increase wrt the control: note to Table 1, concentration not stated
Description: The AREc32 cells were obtained from CRX biosciences (Dundee, Scotland, UK). AREc32 cells were seeded into 96-well plates (flat-bottom white, opaque, sterile, with lids) at a density of 2×10^4, cells/well in 100 μL of complete media per well. Cell plates were then incubated at 37° C., 5% CO2 in a 95% humidified incubator for 24 hours before active addition. Tert butylhydroquinone (TBHQ) was used as an assay positive control. For performing the Nrf2 activity assay, the cells were lysed using Passive Lysis Buffer (PLB) (5×) procured from Promega. The PLB was diluted in a 1:5 ratio with distilled water to make 1× PLB solution. 20 μL of 1× PLB was added to each well of the 96 well plate, including 2 wells without cell (control wells). The plate was covered with aluminium foil to protect from light and incubated for 20 minutes at room temperature, on a rocker incubator. After 20 minutes, 18 μL of the cell lysate was transferred from the transparent 96 well cell culture plate to an opaque, white, flat bottom 96-well plate. The white flat bottom plates were proceeded for Luciferase assay. The Luciferase assay was performed by using Luciferase Assay System, from Promega. 80 μL of the Luciferase Reagent was added using the injector on the TECAN infinite M1000 instrument. Luminescence was measured for a period of 10 seconds using the Green 1 filter. The typical delay time of 2 seconds, and read time of 10 seconds was used. 4 readings were taken from each well within 1 min. The plate was advanced to the next well for a repeat of the inject-then-read process. The luciferase value was represented as fold change over control in Table 1.

Structure (SMILES) | Nrf2 activation fold increase wrt the control | Nrf2 activation Fold change wrt control (10 μM)
CCC/C=C/C=O [E-2-Hexenal] | 1.1 fold | –
C=CC(C)(O)CCC=C(C)C (stereo not drawn) [Linalool] | barely any change | –
CC(C)(C)c1cc(O)ccc1O [TBHQ, Tert butylhydroquinone] | – | 4.5 fold
